Assays:
Type in all cases: biochemical
human plasma [1] = assay: Human plasma anticoagulation, thrombin time (TT)
Description: (§1) Fibrinogen is prepared from in-date ACD human blood as the fraction I-2 according to previous procedures and specifications. Smith, Biochem. […] Coagulation reagents ACTIN, Thromboplastin, and Human plasma are from Baxter Healthcare Corp., Dade Division, Miami, Fla. Bovine thrombin from Parke-Davis (Detroit, Mich.) is used for coagulation assays in plasma. Coagulation assay procedures are as previously described. […] A CoAScreener coagulation instrument (American LABor, Inc.) is used for all coagulation assay measurements. […] The compounds of formula I are added to human or animal plasma over a wide range of concentrations to determine prolongation effects on the APTT, PT, and TT assays. Linear extrapolations are performed to estimate the concentrations required to double the clotting time for each assay.

human plasma [2] = assay: Human plasma anticoagulation, activated partial thromboplastin time (APTT)
Description: as §1

Bovine trypsin = biological target: T1, Bovine trypsin (Bos taurus, UniProt P00760); assay: Serine protease inhibition (Kass), trypsin
T1 construct: Bovine trypsin is purchased from Worthington Biochemicals; purchased Worthington Biochemicals, Freehold, N.J
T1 sequence (P00760 24-246): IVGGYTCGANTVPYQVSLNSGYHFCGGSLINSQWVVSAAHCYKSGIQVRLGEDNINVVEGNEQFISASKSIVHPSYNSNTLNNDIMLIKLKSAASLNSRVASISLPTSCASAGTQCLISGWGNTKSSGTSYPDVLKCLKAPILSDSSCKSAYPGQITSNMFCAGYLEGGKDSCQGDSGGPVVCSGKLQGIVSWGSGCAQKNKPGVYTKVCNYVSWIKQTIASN
Description: (§2) By substantially following the procedures described above for human thrombin, and using other human blood coagulation system serine proteases and using fibrinolytic system serine proteases, with the appropriate chromogenic substrates, identified below, the selectivity of the compounds of the present invention with respect to the coagulation factor serine proteases and to the fibronolytic serine proteases are evaluated as well as their substantial lack of interference with human plasma clot fibrinolysis.
(§3) Human factors X, Xa, IXa, XIa, and XIIa are purchased from Enzyme Research Laboratories, South Bend, Ind.; human urokinase from Leo Pharmaceuticals, Denmark; and recombinant activated Protein C (aPC) is prepared at Eli Lilly and Co. substantially according to U.S. Pat. No. 4,981,952 incorporated by reference herein in its entirety. Chromogenic substrates: N-Benzoyl-Ile-Glu-Gly-Arg-p-nitroanilide (for factor Xa); N-Cbz-D-Arg-Gly-Arg-p-nitroanilide (for factor IXa assay as the factor Xa substrate); Pyroglutamyl-Pro-Arg-p-nitroanilide (for Factor XIa and for aPC); H-D-Pro-Phe-Arg-p-nitroanilide (for factor XIIa); and Pyroglutamyl-Gly-Arg-p-nitroanilide (for urokinase); are purchased from KabiVitrum, Stockholm, Sweden, or from Midwest Biotech, Fishers, Ind. Bovine trypsin is purchased from Worthington Biochemicals, Freehold, N.J., and human plasma kallikrein from Kabi Vitrum, Stockholm, Sweden. Chromogenic substrate H-D-Pro-Phe-Arg-p-nitroanilide for plasma kallikrein is purchased from Kabi Vitrum, Stockholm, Sweden. N-Benzoyl-Phe-Val-Arg-p-nitroanilide, the substrate for human thrombin and for trypsin, is synthesized according to procedures described above for the compounds of the present invention, using known methods of peptide coupling from commercially available reactants, or purchaed from Midwest Biotech, Fishers, Ind.

Human plasmin = biological target: T2, Human plasmin (Homo sapiens, UniProt P00747); assay: Serine protease inhibition (Kass), plasmin
T2 construct: Human plasmin is purchased from Boehringer Mannheim; purchased Boehringer Mannheim, Indianapolis, Ind
Description: as §2
(§4) Human plasmin is purchased from Boehringer Mannheim, Indianapolis, Ind.; nt-PA is purchased as single chain activity reference from American Diagnostica, Greenwich, Conn.; modified-t-PA6 (mt-PA6) is prepared at Eli Lilly and Company by procedure known in the art (See, Burck, et al., J. Biol. Chem., 265, […] (1990). Plasmin chromogenic substrate H-D-Val-Leu-Lys-p-nitroanilide and tissue plasminogen activator (t-PA) substrate H-D-Ile-Pro-Arg-p-nitroanilide are purchased from Kabi Vitrum, Stockholm, Sweden.

human plasma [3] = assay: Human plasma anticoagulation, prothrombin time (PT)
Description: as §1

human thrombin = human thrombin (Homo sapiens, UniProt P00734); assay: Thrombin amidase inhibition (Kass), chromogenic substrate
Description: The assay is carried out by mixing 50 μl buffer (0.03M Tris, 0.15M NaCl, pH 7.4) with 25 μl of human thrombin solution (purified human thrombin, Enzyme Research Laboratories, South Bend, Ind., at 8 NIH units/ml) and 25 μl of test compound in a solvent (50% aqueous methanol (v:v)). Then 150 μl of an aqueous solution of the chromogenic substate (at 0.25 mg/ml) are added and the rates of hydrolysis of the substrate are measured by monitoring the reactions at 405 nm for the release of p-nitroaniline. Standard curves are constructed by plotting free thrombin concentration against hydrolysis rate. […] The amount of free inhibitor in each assay is calculated by subtracting the number of moles of bound thrombin from the number of moles of added inhibitor (test compound).
The Kass value is the hypothetical equilibrium constant for the reaction between thrombin and the test compound (I) . [formula]
Kass is calculated for a range of concentrations of test compounds and the mean value reported in units of liter per mole.

factor Xa = biological target: T3, factor Xa (Homo sapiens, UniProt P00742); assay: Serine protease inhibition (Kass), factor Xa
T3 construct: Human factors X, Xa, IXa, XIa, and XIIa are purchased from Enzyme Research Laboratories; purchased Enzyme Research Laboratories, South Bend, Ind
Description: as §2, §3

[4] = biological target: T4, tissue plasminogen activator (t-PA) (Homo sapiens, UniProt P00750); assay: Serine protease inhibition (Kass), t-PA
T4 construct: purchased American Diagnostica, Greenwich, Conn
Description: as §2, §4

T2 sequence (P00747 581-810 limits assumed): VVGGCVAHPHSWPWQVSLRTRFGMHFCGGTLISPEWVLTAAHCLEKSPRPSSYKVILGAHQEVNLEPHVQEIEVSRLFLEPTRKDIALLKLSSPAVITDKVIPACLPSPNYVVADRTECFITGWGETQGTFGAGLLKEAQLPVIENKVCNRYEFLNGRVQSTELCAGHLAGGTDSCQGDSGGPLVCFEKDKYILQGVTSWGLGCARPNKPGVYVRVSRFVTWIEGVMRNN
T2 sequence (P00747 97-580 partner limits assumed): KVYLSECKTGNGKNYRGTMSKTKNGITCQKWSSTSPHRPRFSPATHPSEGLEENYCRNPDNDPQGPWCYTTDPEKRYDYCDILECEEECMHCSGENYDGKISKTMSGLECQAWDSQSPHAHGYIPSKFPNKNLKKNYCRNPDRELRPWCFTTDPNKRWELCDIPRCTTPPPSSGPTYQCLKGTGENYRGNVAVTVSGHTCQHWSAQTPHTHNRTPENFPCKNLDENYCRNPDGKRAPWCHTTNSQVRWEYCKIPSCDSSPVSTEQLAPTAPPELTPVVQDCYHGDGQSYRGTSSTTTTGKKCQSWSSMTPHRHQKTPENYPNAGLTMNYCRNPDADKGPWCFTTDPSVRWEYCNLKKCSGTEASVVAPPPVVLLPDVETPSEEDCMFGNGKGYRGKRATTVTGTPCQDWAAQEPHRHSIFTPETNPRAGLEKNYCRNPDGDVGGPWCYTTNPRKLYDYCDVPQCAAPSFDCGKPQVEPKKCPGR
T4 sequence (P00750 36-562): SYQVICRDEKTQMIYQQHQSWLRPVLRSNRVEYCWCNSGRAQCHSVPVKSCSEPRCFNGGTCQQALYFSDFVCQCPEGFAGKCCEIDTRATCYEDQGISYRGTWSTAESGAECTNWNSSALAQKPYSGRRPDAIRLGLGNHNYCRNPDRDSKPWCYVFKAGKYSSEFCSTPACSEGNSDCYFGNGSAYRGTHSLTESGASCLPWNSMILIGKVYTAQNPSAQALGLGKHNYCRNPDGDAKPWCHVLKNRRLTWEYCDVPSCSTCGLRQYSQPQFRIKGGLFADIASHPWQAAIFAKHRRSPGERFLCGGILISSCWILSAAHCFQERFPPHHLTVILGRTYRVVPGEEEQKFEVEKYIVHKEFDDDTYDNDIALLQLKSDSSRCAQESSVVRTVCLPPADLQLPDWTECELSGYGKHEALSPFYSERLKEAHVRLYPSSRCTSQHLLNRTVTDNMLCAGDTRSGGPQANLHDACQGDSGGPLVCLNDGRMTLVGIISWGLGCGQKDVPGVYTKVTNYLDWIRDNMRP
T3 sequence (P00742 235-488 limits assumed): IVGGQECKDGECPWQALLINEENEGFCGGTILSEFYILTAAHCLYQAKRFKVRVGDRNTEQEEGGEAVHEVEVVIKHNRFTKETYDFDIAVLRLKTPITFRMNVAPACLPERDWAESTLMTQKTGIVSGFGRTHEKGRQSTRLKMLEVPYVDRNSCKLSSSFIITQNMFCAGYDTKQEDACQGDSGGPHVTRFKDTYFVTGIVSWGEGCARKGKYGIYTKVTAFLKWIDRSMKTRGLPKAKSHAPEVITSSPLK
T3 sequence (P00742 41-179 partner limits assumed): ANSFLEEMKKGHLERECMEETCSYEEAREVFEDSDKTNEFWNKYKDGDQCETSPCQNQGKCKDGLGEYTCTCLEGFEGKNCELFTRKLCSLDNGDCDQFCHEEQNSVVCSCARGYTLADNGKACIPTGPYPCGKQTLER

Kass Trypsin (Bovine trypsin) [L/mol × 10^6]	Kass Plasmin (Human plasmin) [L/mol × 10^6]	Kass Human Thrombin (human thrombin) [L/mol × 10^6]	Kass Xa (factor Xa) [L/mol × 10^6]	Kass t-PA [4] [L/mol × 10^6]	SMILES	2 × Clotting time TT (human plasma [1])	2 × Clotting time APTT (human plasma [2])	2 × Clotting time PT (human plasma [3])
14	0.54	29	0.10	0.37	Cl.N=C(N)NCCC[C@@H](C=O)NC(=O)[C@@H]1CCCN1C(=O)[C@@H](Cc1ccccc1)NC(=O)Cc1ccccc1 [Example 70, N-(phenylacetyl)-D-phenylalanyl-L-Prolinyl-L-Arginine Aldehyde Hydrochloride]	64 ng/mL	1,100 ng/mL	2,000 ng/mL
0.18	0.001	2.8	0.002	0.009	Cl.Cn1c(C(=O)NC(C)(Cc2ccccc2)C(=O)N2CCC[C@H]2C(=O)N[C@H](C=O)CCCNC(=N)N)cc2ccccc21 (stereo partly drawn) [Example 34, N-(1-methylindolyl-2carbonyl)phenylalanyl(αmethyl)-L-prolinyl-L-argi nine aldehyde hydrochloride]	1,800 ng/mL	21,000 ng/mL	37,000 ng/mL
14	0.28	3.4	0.066	0.11	CC(=O)N[C@H](Cc1ccccc1)C(=O)N1CCC[C@H]1C(=O)N[C@H](C=O)CCCNC(=N)N.Cl [Example 67, N-(acetyl)-D-phenylalanyl-L-Prolinyl-L-Arginine Aldehyde Hydrochloride]	140 ng/mL	2,700 ng/mL	4,100 ng/mL
1.4	0.031	2.1	0.033	0.0023	C[C@@]1(C(=O)N[C@H](C=O)CCCNC(=N)N)CCCN1C(=O)[C@H](Cc1ccccc1)NS(C)(=O)=O.Cl [Example 44, N-methylsulfonylphenylalanyl(αmethyl)-L-prolinyl-L-arginine aldehyde hydrochloride]	560 ng/mL	12,000 ng/mL	11,000 ng/mL
150	9.5	200	8.8	1.5	COc1ccc(OC)c(S(=O)(=O)N[C@H](Cc2ccccc2)C(=O)N2CCC[C@H]2C(=O)N[C@H](C=O)CCCNC(=N)N)c1.Cl [Example 59, N-(2,5-dimethoxyphenylsulfonyl)-D-phenylalanyl-L-Prolinyl-L-Arginine Aldehyde Hydrochloride]	92 ng/mL	550 ng/mL	2,000 ng/mL
52	3.4	68	2.8	0.31	Cl.N=C(N)NCCC[C@@H](C=O)NC(=O)[C@@H]1CCCN1C(=O)[C@@H](Cc1ccccc1)NS(=O)(=O)c1nccs1 [Example 63, N-(2-thiazolylsulfonyl)-D-phenylalanyl-L-Prolinyl-L-Arginine Aldehyde Hydrochloride]	66 ng/mL	810 ng/mL	2,900 ng/mL
5.2	0.27	13	0.067	0.22	Cl.N=C(N)NCCC[C@@H](C=O)NC(=O)[C@@H]1CCCN1C(=O)[C@@H](Cc1ccccc1)NC(=O)Cc1cccnc1 [Example 48, N-(3-pyridylacetyl)-D-phenylalanyl-L-Prolinyl-L-Arginine Aldehyde Hydrochloride]	150 ng/mL	2,300 ng/mL	3,400 ng/mL

SMILES	Kass Trypsin (Bovine trypsin) [L/mol × 10^6]	Kass Plasmin (Human plasmin) [L/mol × 10^6]	Kass Human Thrombin (human thrombin) [L/mol × 10^6]	Kass Xa (factor Xa) [L/mol × 10^6]	Kass t-PA [4] [L/mol × 10^6]	2 × Clotting time TT (human plasma [1])	2 × Clotting time APTT (human plasma [2])	2 × Clotting time PT (human plasma [3])
Cl.Cl.N=C(N)NCCC[C@@H](C=O)NC(=O)[C@@H]1CCCN1C(=O)[C@@]1(Cc2ccccc2)CCCN1.O.O [Example 24, D-Prolinyl (αbenzyl)-L-Prolinyl-L-arginine aldehyde, dihydrochloride dihydrate]	14	0.31	12	0.13	0.0034	160 ng/mL	2,100 ng/mL	3,600 ng/mL
Cl.Cn1c(C(=O)NC2(C(=O)N3CCC[C@H]3C(=O)N[C@H](C=O)CCCNC(=N)N)CCCCC2)cc2ccccc21 [Example 32, 1-(1-methylindolyl-2-carbonylamino)cyclohexoyl-L-prolinyl-L-arginine aldehyde hydrochloride]	0.45	0.0071	5.7	0.024	0.0011	1,000 ng/mL	11,000 ng/mL	9,200 ng/mL
Cl.Cl.Cn1c(C(=O)N[C@](C)(Cc2ccccc2)C(=O)N2CCC[C@H]2C(=O)N[C@H](C=O)CCCNC(=N)N)cc2ccccc21 [Example 30, N-(1-methylindolyl-2-carbonyl)-D-phenylalanyl(α-methyl)-L-prolinyl-L -arginine aldehyde dihydrochloride]	1.3	0.0083	25	0.013	0.0022	220 ng/mL	2,800 ng/mL	4,200 ng/mL
CCOC(=O)N[C@H](Cc1ccccc1)C(=O)N1CCC[C@@]1(C)C(=O)N[C@H](C=O)CCCNC(=N)N.Cl [Example 27, N-ethoxycarbonyl-D-Phenylalanyl(α-methyl)-L-prolinyl-L-arginine aldehyde hydrochloride]	2.4	0.059	75	0.044	0.00079	48 ng/mL	2,500 ng/mL	2,200 ng/mL

Source: patent US5436229A, “Bisulfite adducts of arginine aldehydes” (Eli Lilly and Company, priority 1994, dated 1995)
